Experimental data as given in US20240246954A1, “COMPOSITIONS AND METHODS FOR INHIBITING KRAS” (TheRas, Inc., priority 2021, published 2024).

Experiments:
[1] = target: T1, Avi-KRAS G12D (1-169) GppNHp/RAF1 RBD-3×FLAG (52-151) (Homo sapiens, UniProt P01116, G12D); test: HTRF Raf1-KRAS G12D-GppNHp disruption assay; assay type: biochemical; conditions: 1 h incubation
T1 construct: Avi-KRAS G12D (1-169) GppNHp
Procedure, shortened: (§1)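 HTRF read-out (320 nm excitation, 615 nm emission) after two 1 h room-temperature incubations, first with protein mix, then detection reagents. Ten-point dilution series starting at 100 μM; results given as % activity relative to DMSO at 100%.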

[2] = target: T2, Avi-KRAS G12D/Q25A (1-169) GppNHp/3×FLAG-PI3KCA (157-299) (Homo sapiens, UniProt P01116, G12D/Q25A); test: HTRF PI3KCA-KRAS G12D/Q25A-GppNHp disruption assay; assay type: biochemical; conditions: 1 h incubation
T2 construct: Avi-KRAS G12D/Q25A (1-169) GppNHp
Procedure, shortened: as §1

T1 sequence (P01116 1-169 isoform P01116-2 G12D limits assumed): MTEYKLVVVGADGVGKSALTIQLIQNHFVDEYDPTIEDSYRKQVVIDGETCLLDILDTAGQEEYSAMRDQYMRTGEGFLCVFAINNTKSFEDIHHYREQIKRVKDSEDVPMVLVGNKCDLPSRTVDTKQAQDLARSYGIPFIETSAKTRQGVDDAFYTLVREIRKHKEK
T2 sequence (P01116 1-169 isoform P01116-2 G12D/Q25A limits assumed): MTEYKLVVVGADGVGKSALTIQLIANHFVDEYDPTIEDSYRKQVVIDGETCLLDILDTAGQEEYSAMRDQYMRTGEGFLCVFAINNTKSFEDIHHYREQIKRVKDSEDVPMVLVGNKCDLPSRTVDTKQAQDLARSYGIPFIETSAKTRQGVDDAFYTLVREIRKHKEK

| SMILES | IC50 [1] | IC50 [2] |
| --- | --- | --- |
| CN(c1nc(OCC23CCCN2CC(C)(C)C3)nc2c(F)c(-c3ccc(F)c4sc(N)nc34)c(C(F)(F)F)cc12)C1CNC1 (stereo not shown) [Compound 201] | 10 to 30 µM | 10 to 30 µM |
| NCC(=O)N1CC[C@@H]2[C@H]1CN2c1nc(OCC23CCCN2CCC3)nc2c(F)c(-c3ccc(F)c4sc(N)nc34)c(C(F)(F)F)cc12 [Compound 202] | 0.1 to 1 µM | 1 to 10 µM |
| CN1CCC[C@H]1COc1nc(N2CCNCC2)c2cc(C3(C#N)CCC3)c(-c3ccc(F)c4sc(N)nc34)c(F)c2n1 [Compound 203, 1-[7-(2-amino-7-fluoro-1,3-benzothiazol-4-yl)-8-fluoro-2-[[(2S)-1-methylpyrrolidin-2-yl]methoxy]-4-piperazin-1-yl-quinazolin-6-yl]cyclobutanecarbonitrile] | 10 to 30 µM | 10 to 30 µM |
| CN(c1nc(OC[C@@H]2CC(F)(F)CN2C)nc2c(F)c(-c3ccc(F)c4sc(N)nc34)c(C(F)(F)F)cc12)C1CNC1 [Compound 204] | 10 to 30 µM | 10 to 30 µM |
| Cc1cc2c(N3CCNCC3)nc(OC[C@@H]3CCCN3C)nc2c(F)c1-c1ccc(F)c2sc(N)nc12 [Compound 205] | 10 to 30 µM | 10 to 30 µM |
| Nc1nc2c(-c3c(C(F)(F)F)cc4c(N5CCNCC5)nc(OC[C@@]56CCCN5C[C@H](F)C6)nc4c3F)ccc(F)c2s1 [Compound 206] | 0.1 to 1 µM | 1 to 10 µM |
| CN1CCC[C@H]1COc1nc(N(CCO)C2CNC2)c2cc(Cl)c(-c3ccc(F)c4sc(N)nc34)c(F)c2n1 [Compound 208] | 10 to 30 µM | 10 to 30 µM |
| C[C@@H]1CNCCN1c1nc(OC[C@]23CCCN2C[C@H](F)C3)nc2c(F)c(-c3ccc(F)c4sc(N)nc34)c(C(F)(F)F)cc12 [Compound 209] | 0.1 to 1 µM | 1 to 10 µM |
| C[C@@H]1CN(c2nc(OC[C@]34CCCN3C[C@H](F)C4)nc3c(F)c(-c4ccc(F)c5sc(N)nc45)c(C(F)(F)F)cc23)CCN1 [Compound 210] | 1 to 10 µM | 10 to 30 µM |
| Nc1nc2c(-c3c(C(F)(F)F)cc4c(N5CCNCC5)nc(OCC56CCCN5CC(F)(F)C6)nc4c3F)ccc(F)c2s1 (stereo not shown) [Compound 211] | 1 to 10 µM | 10 to 30 µM |
| C[C@@H]1CN(c2nc(OC[C@@]34CCCN3C[C@H](F)C4)nc3c(F)c(-c4ccc(F)c5sc(N)nc45)c(C(F)(F)F)cc23)CCN1 [Compound 212] | 0.1 to 1 µM | 1 to 10 µM |
| C[C@@H]1CN(c2nc(OC[C@]34CCCN3C[C@H](F)C4)nc3c(F)c(-c4ccc(F)c5sc(N)nc45)c(C(F)(F)F)cc23)[C@@H](C)CN1 [Compound 214] | 0.1 to 1 µM | 10 to 30 µM |
| C[C@@H]1CN(c2nc(OC[C@]34CCCN3C[C@H](F)C4)nc3c(F)c(-c4ccc(F)c5sc(N)nc45)c(C(F)(F)F)cc23)C[C@H](C)N1 [Compound 215] | 1 to 10 µM | 10 to 30 µM |
| COc1cc2c(N3CCNCC3)nc(OCC34CCCN3CCC4)nc2c(F)c1-c1ccc(F)c2sc(N)nc12 [Compound 216, 7-fluoro-4-(8-fluoro-6-methoxy-4-(piperazin-1-yl)-2-((tetrahydro-1H-pyrrolizin-7a(5H)-yl)methoxy)quinazolin-7-yl)benzo[d]thiazol-2-amine] | 1 to 10 µM | 1 to 10 µM |
| CN1CCC[C@H]1COc1nc(N2CCNCC2)c2cc(C(F)F)c(-c3ccc(F)c4sc(N)nc34)c(F)c2n1 [Compound 217, 4-(6-(difluoromethyl)-8-fluoro-2-(((S)-1-methylpyrrolidin-2-yl)methoxy)-4-(piperazin-1-yl)quinazolin-7-yl)-7-fluorobenzo[d]thiazol-2-amine] | 1 to 10 µM | 1 to 10 µM |
| C[C@H]1CNCCN1c1nc(OC[C@@]23CCCN2C[C@@H](F)C3)nc2c(F)c(-c3ccc(F)c4sc(N)nc34)c(C(F)(F)F)cc12 [Compound 222] | 1 to 10 µM | 10 to 30 µM |
| C[C@@H]1CN(c2nc(OC[C@@]34CCCN3C[C@@H](F)C4)nc3c(F)c(-c4ccc(F)c5sc(N)nc45)c(C(F)(F)F)cc23)[C@@H](C)CN1 [Compound 224] | 10 to 30 µM | 10 to 30 µM |
